Results published in US7511145B2 (Genelabs Technologies, Inc., priority 2003, dated 2009).

Biological target: T1, HCV-NS5b (Hepatitis C virus genotype 1b, UniProt Q9WMX2)
T1 construct: (His)6 (C); made in house; host or cells: XL-1 cells (E. coli), IPTG-inducible plasmid, nickel-NTA purification
Assay: HCV-NS5b enzyme assay (incorporation of radiolabeled UTP)
Format: biochemical
Conditions: for inhibition at 33 µM: enzyme inhibition at compound concentration of 33 uM; for inhibition at 100 µM: read-out: % inh@100, enzyme inhibition at compound concentration of 100 uM
Outline: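 Percent inhibition, background-corrected against uninhibited control, was measured at 100 and 33 uM compound. Incorporation of [3H]-UTP (10 μM each NTP) into biotinylated HCV-template RNA, 37° C for 2 h, pH 7.5, scintillation proximity. Enzyme: C-terminally truncated (21 aa), His6-tagged NS5b from XL-1.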

COc1ccc(-c2ccc(O)cc2)c(-c2ccc3cc(-c4nc5cc(C(=O)O)ccc5n4C4CCCCC4)ccc3n2)c1 [Compound 469, 1-cyclohexyl-2-[2-(4′-hydroxy-4-methoxy-biphen-2-yl)-quinolin-6-yl]-1H-benzoimidazole-5-carboxylic acid]
inhibition at 33 µM: 94.2%
inhibition at 100 µM: 98.2%

COc1ccc(-c2cccs2)c(-c2ccc3cc(-c4nc5cc(C(=O)O)ccc5n4C4CCCCC4)ccc3n2)c1 [Compound 470, 1-cyclohexyl-2-[2-(5-methoxy-2-thiophen-2-yl-phenyl)-quinolin-6-yl]-1H-benzoimidazole-5-carboxylic acid]
inhibition at 33 µM: 101%
inhibition at 100 µM: 99.4%

Cc1cc(-c2ccccc2Br)nc2ccc(-c3nc4cc(C(=O)O)ccc4n3C3CCCCC3)cc12 [Compound 471, 2-[2-(2-Bromo-phenyl)-4-methyl-quinolin-6-yl]-1-cyclohexyl-1H-benzoimidazole-5-carboxylic acid]
inhibition at 33 µM: 97.8%
inhibition at 100 µM: 99.8%

Cc1cc(-c2ccc3cc(-c4nc5cc(C(=O)O)ccc5n4C4CCCCC4)ccc3n2)c(-c2ccccc2)s1 [Compound 472, 1-cyclohexyl-2-[2-(5-methyl-2-phenyl-thiophen-3-yl)-quinolin-6-yl]-1H-benzoimidazole-5-carboxylic acid]
inhibition at 33 µM: 97.1%
inhibition at 100 µM: 98.1%

O=C(O)c1ccc2c(c1)nc(-c1ccc3nc(-c4ccc(-n5ccnc5)cc4)ccc3c1)n2C1CCCCC1 [Compound 473, 1-cyclohexyl-2-[2-(4-imidazol-1-yl-phenyl)-quinolin-6-yl]-1H-benzoimidazole-5-carboxylic acid]
inhibition at 33 µM: 99.2%
inhibition at 100 µM: 97.4%

O=C(O)c1ccc2c(c1)nc(-c1ccc3nc(-c4cccc(O)c4)ccc3c1)n2C1CCCCC1 [Compound 474, 1-Cyclohexyl-2-[2-(3-hydroxy-phenyl)-quinolin-6-yl]-1H-benzoimidazole-5-carboxylic acid]
inhibition at 33 µM: 97%
inhibition at 100 µM: 101%

COCCOc1ccc(-c2ccc(Cl)cc2)c(-c2ccc3cc(-c4nc5cc(C(=O)O)ccc5n4C4CCCCC4)ccc3n2)c1 [Compound 475, 2-{2-[4′-Chloro-4-(2-methoxy-ethoxy)-biphen-2-yl]-quinolin-6-yl}-1-cyclohexyl-1H-benzoimidazole-5-carboxylic acid]
inhibition at 33 µM: 97.5%
inhibition at 100 µM: 95.9%

O=C(O)c1ccc2c(c1)nc(-c1ccc3nc(CCn4cccn4)ccc3c1)n2C1CCCCC1 [Compound 476, 1-cyclohexyl-2-[2-(2-pyrazol-1-yl-ethyl)-quinolin-6-yl]-1H-benzoimidazole-5-carboxylic acid]
inhibition at 33 µM: 97.3%
inhibition at 100 µM: 97.1%

O=C(O)c1cnc2c(c1)nc(-c1ccc3nc(-c4ccccc4Br)ccc3c1)n2C1CCCCC1 [Compound 477, 2-[2-(2-bromo-phenyl)-quinolin-6-yl]-3-cyclohexyl-3H-imidazo[4,5-b]pyridine-6-carboxylic acid]
inhibition at 33 µM: 92.4%
inhibition at 100 µM: 95.9%

O=C(O)c1ccc2c(c1)nc(-c1ccc3nc(-c4ccc5c(c4)CCO5)ccc3c1)n2C1CCCCC1 [Compound 478, 1-cyclohexyl-2-[2-(2,3-dihydro-benzofuran-5-yl)-quinolin-6-yl]-1H-benzoimidazole-5-carboxylic acid]
inhibition at 33 µM: 95.8%
inhibition at 100 µM: 97.2%

O=C(O)c1ccc2c(c1)nc(-c1ccc3nc(-c4cc(-c5ccc(Cl)c(Cl)c5)no4)ccc3c1)n2C1CCCCC1 [Compound 479, 1-cyclohexyl-2-{2-[3-(3,4-dichloro-phenyl)-isoxazol-5-yl]-quinolin-6-yl}-1H-benzoimidazole-5-carboxylic acid]
inhibition at 33 µM: 99.6%
inhibition at 100 µM: 102%

Nc1cc(-c2ccccc2)sc1-c1ccc2cc(-c3nc4cc(C(=O)O)ccc4n3C3CCCCC3)ccc2n1 [Compound 480, 2-[2-(3-amino-5-phenyl-thiophen-2-yl)-quinolin-6-yl]-1-cyclohexyl-1H-benzoimidazole-5-carboxylic acid]
inhibition at 33 µM: 101%
inhibition at 100 µM: 104%

CN(C)c1cc(-c2ccccc2)nc2ccc(-c3nc4cc(C(=O)O)ccc4n3C3CCCCC3)cc12 [Compound 481, 1-cyclohexyl-2-(4-dimethylamino-2-phenyl-quinolin-6-yl)-1H-benzoimidazole-5-carboxylic acid]
inhibition at 33 µM: 76.5%
inhibition at 100 µM: 96.7%

O=C(O)c1ccc2c(c1)nc(-c1ccc3nc(-c4cccc(Br)c4)ccc3c1)n2C1CCCCC1 [Compound 482, 2-[2-(3-bromo-phenyl)-quinolin-6-yl]-1-cyclohexyl-1H-benzoimidazole-5-carboxylic acid]
inhibition at 33 µM: 100%
inhibition at 100 µM: 101%

O=C(O)c1ccc2c(c1)nc(-c1ccc3nc(-c4cccc(-c5ccc(Cl)cc5)c4)ccc3c1)n2C1CCCCC1 [Compound 483, 2-[2-(4′-chloro-biphenyl-3-yl)-quinolin-6-yl]-1-cyclohexyl-1H-benzoimidazole-5-carboxylic acid]
inhibition at 33 µM: 102%
inhibition at 100 µM: 99.4%

COc1ccc(-c2cnc(OC)nc2OC)c(-c2ccc3cc(-c4nc5cc(C(=O)O)ccc5n4C4CCCCC4)ccc3n2)c1 [Compound 484, 1-cyclohexyl-2-{2-[2-(2,4-dimethoxy-pyrimidin-5-yl)-5-methoxy-phenyl]-quinolin-6-yl}-1H-benzoimidazole-5-carboxylic acid]
inhibition at 33 µM: 99.6%
inhibition at 100 µM: 98.3%

Cc1cc(-c2ccccc2-c2ccc(Cl)cc2)nc2ccc(-c3nc4cc(C(=O)O)ccc4n3C3CCCCC3)cc12 [Compound 485, 2-[2-(4′-Chloro-biphen-2-yl)-4-methyl-quinolin-6-yl]-1-cyclohexyl-1H-benzoimidazole-5-carboxylic acid]
inhibition at 33 µM: 98.6%
inhibition at 100 µM: 99.5%

COc1cccc(-c2ccc3cc(-c4nc5cc(C(=O)O)ccc5n4C4CCCCC4)ccc3n2)c1 [Compound 486, 1-Cyclohexyl-2-[2-(3-methoxy-phenyl)-quinolin-6-yl]-1H-benzoimidazole-5-carboxylic acid]
inhibition at 33 µM: 93.5%
inhibition at 100 µM: 97.9%

O=C(O)c1ccc2c(c1)nc(-c1ccc3nc(-c4cc(O)ccc4-c4ccccc4)ccc3c1)n2C1CCCCC1 [Compound 487, 1-Cyclohexyl-2-[2-(4-hydroxy-biphen-2-yl)-quinolin-6-yl]-1H-benzoimidazole-5-carboxylic acid]
inhibition at 33 µM: 102%
inhibition at 100 µM: 101%

O=C(O)c1ccc2c(c1)nc(-c1ccc3nc(-c4ccc(N5CCNCC5)cc4)ccc3c1)n2C1CCCCC1 [Compound 488, 1-cyclohexyl-2-[2-(4-piperazin-1-yl-phenyl)-quinolin-6-yl]-1H-benzoimidazole-5-carboxylic acid]
inhibition at 33 µM: 91.8%
inhibition at 100 µM: 97.2%

CCCN(CCC)Cc1ccc2cc(-c3nc4cc(C(=O)O)ccc4n3C3CCCCC3)ccc2n1 [Compound 489, 1-cyclohexyl-2-(2-dipropylaminomethyl-quinolin-6-yl)-1H-benzoimidazole-5-carboxylic acid]
inhibition at 33 µM: 87%
inhibition at 100 µM: 96%

O=C(O)c1cnc2c(c1)nc(-c1ccc3nc(-c4ccccc4-c4ccc(Cl)cc4)ccc3c1)n2C1CCCCC1 [Compound 490, 2-[2-(4′-chloro-biphen-2-yl)-quinolin-6-yl]-3-cyclohexyl-3H-imidazo[4,5-b]pyridine-6-carboxylic acid]
inhibition at 33 µM: 95.9%
inhibition at 100 µM: 94.3%
